EC50 data for 40 compounds are collected here from patent US11261186B2, “Biaryl derivative as GPR120 agonist” (LG CHEM, LTD., priority 2014, dated 2022).

The test addresses T1, hGPR120 (Homo sapiens, UniProt Q5NUL3).
T1 construct: expressed in transfected cells; host or cells: CHO-K1
T1 sequence (Q5NUL3 1-361): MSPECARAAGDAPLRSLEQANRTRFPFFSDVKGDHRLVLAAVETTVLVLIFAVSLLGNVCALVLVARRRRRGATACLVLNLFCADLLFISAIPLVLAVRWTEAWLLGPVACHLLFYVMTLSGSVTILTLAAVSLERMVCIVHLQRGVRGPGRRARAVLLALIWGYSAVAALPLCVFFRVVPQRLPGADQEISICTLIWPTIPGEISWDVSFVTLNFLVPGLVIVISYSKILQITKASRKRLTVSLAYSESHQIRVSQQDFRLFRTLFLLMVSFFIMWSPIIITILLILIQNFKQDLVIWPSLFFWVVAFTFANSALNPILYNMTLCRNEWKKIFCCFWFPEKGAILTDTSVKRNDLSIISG
Description: Measurement of Activity of GPR120 Agonist (Cell-Based Assay), Calcium 5 dye fluorescence. The following applies: CHO-K1 cells expressing Ga16 and hGPR120. As for the experimental part: CHO-K1 cells expressing Ga16 and hGPR120 were dispensed into each well of a 96-well plate (3×10^4 cells/100 μl/well) and then incubated in 5% CO2, 37° C. incubator for 18 hours. Each well was treated with 100 μl of Calcium 5 dye (Molecular Devices) solution including 2% DMSO and then incubated in 5% CO2, 37° C. incubator for 1 hour. Serially diluted GPR120 agonists were prepared to a final concentration of 0.5% DMSO in a 96-well plate. Each well was treated with 50 μl of the agonist compounds using Plexstation II, and then fluorescence was measured at Ex 485 nm and Em 525 nm.
Fluorescence increased by the serially diluted GPR120 agonists is calculated as a relative percent (%) value based on the fluorescence represented by the treatment of 1% DMSO only. […] The calculation of measurement was carried out by using statistical software (Prizm).
Activity is denoted based on the following criteria: […]
Regarding `CC(CCCC(=O)O)c1c(F)cc(-c2ccccc2NC2CCCC2)cc1F` (racemic) [Example 47, 5-(2′-cyclopentylamino-3,5-difluoro-bisphenyl-4-yl)hexanoic acid], the EC50 is less than 200 nM. In the case of `CC(C)Sc1ncccc1-c1ccc2nc(CCC(=O)O)ccc2c1` [Example 1, 3-[6-(2-isopropylsulfanyl-pyridin-3-yl)-quinolin-2-yl]-propionic acid], the EC50 fell in the range of 200 to 2000 nM. Consider `CC(C)Sc1cccc(-c2ccc3nc(CCC(=O)O)ccc3c2)n1` [Example 2, 3-[6-(6-isopropylsulfanyl-pyridin-2-yl)-quinolin-2-yl]-propionic acid], for which the EC50 lay in the range of 200 to 2000 nM. Turning to `O=C(O)COc1ccc2cc(-c3cccc(OC4CCCC4)n3)ccc2c1` [Example 3, [6-(6-cyclopentyloxy-pyridin-2-yl)-naphthalen-2-yloxy]-acetic acid], the EC50 was in the range of 200 to 2000 nM.

For the compound `O=C(O)COc1ccc2cc(-c3cccnc3OC3CCCC3)ccc2c1` [Example 4, [6-(2-cyclopentyloxy-pyridin-3-yl)-naphthalen-2-yloxy]-acetic acid], the EC50 lay in the range of 2000 to 20000 nM. As for `CC(C)Sc1ncccc1-c1ccc2cc(OCCCC(=O)O)ccc2c1` [Example 5, 4-[6-(2-isopropylsulfanyl-pyridin-3-yl)-naphthalen-2-yloxy]-butyric acid], the figure is 200 to 2000 nM. As for `CC(C)Sc1ncccc1-c1ccc2c(c1)CCC(CCC(=O)O)O2` (stereo not shown) [Example 7, 3-[6-(2-isopropylsulfanyl-pyridin-3-yl)-chroman-2-yl]-propionic acid], the figure is less than 200 nM. For `CC(C)Sc1cccc(-c2ccc3c(c2)CCC(CCC(=O)O)O3)n1` (stereo not shown) [Example 8, 3-[6-(6-isopropylsulfanyl-pyridin-2-yl)-chroman-2-yl]-propionic acid], the EC50 is less than 200 nM. The value for `O=C(O)CCC1CCc2cc(-c3cccc(OC4CCCC4)n3)ccc2O1` (stereo not shown) [Example 9, 3-[6-(6-cyclopentyloxy-pyridin-2-yl)-chroman-2-yl]-propionic acid] was less than 200 nM; that for `O=C(O)CCC1CCc2cc(-c3cccnc3OC3CCCC3)ccc2O1` (stereo not shown) [Example 10, 3-[6-(2-cyclopentyloxy-pyridin-3-yl)-chroman-2-yl]-propionic acid] was less than 200 nM. As for `O=C(O)CCC1CCc2cc(-c3cccc(OC4CCCC4)n3)ccc2N1` (stereo not shown) [Example 11, 3-[6-(6-cyclopentyloxy-pyridin-2-yl)-1,2,3,4-tetrahydro-quinolin-2-yl]-propionic acid], the figure is 200 to 2000 nM; as for `CN1c2ccc(-c3cccc(OC4CCCC4)n3)cc2CCC1CCC(=O)O` (stereo not shown) [Example 12, 3-[6-(6-cyclopentyloxy-pyridin-2-yl)-1-methyl-1,2,3,4-tetrahydro-quinolin-2-yl]-propionic acid], 200 to 2000 nM. The value for `O=C(O)CCCOc1c(F)cc(-c2cccc(OCc3ccccc3)c2)cc1F` [Example 17, 4-(3′-benzyloxy-3,5-difluoro-biphenyl-4-yloxy)-butyric acid] was 2000 to 20000 nM.

In the case of `CC(C)Oc1cccc(-c2cc(F)c(OCCCC(=O)O)c(F)c2)c1` [Example 18, 4-(3,5-difluoro-3′-isopropoxy-biphenyl-4-yloxy)-butyric acid], the EC50 is less than 200 nM. As for `CCCOc1cccc(-c2cc(F)c(OCCCC(=O)O)c(F)c2)c1` [Example 19, 4-(3,5-difluoro-3′-propoxy-biphenyl-4-yloxy)-butyric acid], the figure is less than 200 nM; as for `O=C(O)CCCOc1c(F)cc(-c2cccc(OCC3CC3)c2)cc1F` [Example 20, 4-(3′-cyclopropylmethoxy-3,5-difluoro-biphenyl-4-yloxy)-butyric acid], less than 200 nM. As for `O=C(O)CCCOc1c(F)cc(-c2cccc(OC3CCC3)c2)cc1F` [Example 21, 4-(3′-cyclobutoxy-3,5-difluoro-biphenyl-4-yloxy)-butyric acid], the figure is less than 200 nM; as for `CC1(C)Cc2cccc(-c3cc(F)c(OCCCC(=O)O)c(F)c3)c2O1` [Example 22, 4-[4-(2,2-dimethyl-2,3-dihydro-benzofuran-7-yl)-2,6-difluoro-phenoxy]-butyric acid], less than 200 nM; as for `CC1(C)Oc2cccc(-c3cc(F)c(OCCCC(=O)O)c(F)c3)c2O1` [Example 23, 4-[4-(2,2-dimethyl-benzo[1,3]dioxol-4-yl)-2,6-difluoro-phenoxy]-butyric acid], less than 200 nM. As for `Fc1cc(-c2cccnc2SC2CCC2)cc(F)c1OCCCc1nnn[nH]1` [Example 25, 2-cyclobutylsulfanyl-3-{3,5-difluoro-4-[3-(1H-tetrazol-5-yl)propoxy]phenyl}pyridin], the figure is 200 to 2000 nM. Take `c1cnc(SC2CCC2)c(-c2ccc(CCCc3nnn[nH]3)cc2)c1` [Example 26, 2-cyclobutylsulfanyl-3-{4-[3-(1H-tetrazol-5-yl)propyl]phenyl}pyridine]: the concentration for a half-maximal effect (EC50) was 200 to 2000 nM. As for `O=C(O)CCCCc1ccc(-c2cccnc2SC2CCC2)cc1` [Example 27, 5-[4-(2-cyclobutylsulfanyl-3-pyridyl)phenyl]pentanoic acid], the figure is less than 200 nM. As to `O=C(O)CCCCc1ccc(-c2cccc(SC3CCCC3)n2)cc1` [Example 28, 5-[4-(6-cyclopentylsulfanyl-2-pyridyl)phenyl]pentanoic acid], the EC50 is less than 200 nM. As for `O=C(O)CCCCc1ccc(-c2cccnc2SC2CCCC2)cc1` [Example 29, 5-[4-(2-cyclopentylsulfanyl-3-pyridyl)phenyl]pentanoic acid], the figure is less than 200 nM; as for `CCCSc1ncccc1-c1cc(F)c(CCCCC(=O)O)c(F)c1` [Example 31, 5-[2,6-difluoro-4-(2-propylsulfanyl-3-pyridyl)phenyl]pentanoic acid], less than 200 nM; as for `O=C(O)CCCCc1c(F)cc(-c2cccc(OC3CCC3)n2)cc1F` [Example 32, 5-[4-(6-cyclobutoxy-2-pyridyl)-2,6-difluoro-phenyl]pentanoic acid], less than 200 nM.

As to `O=C(O)CCCCc1c(F)cc(-c2cccc(OC3CCCC3)n2)cc1F` [Example 33, 5-[4-(6-cyclopentoxy-2-pyridyl)-2,6-difluoro-phenyl]pentanoic acid], the EC50 is less than 200 nM. For the compound `O=C(O)CCCCc1c(F)cc(-c2cccc3c2OC(F)(F)O3)cc1F` [Example 34, 5-[4-(2,2-difluoro-benzo[1,3]dioxol-4-yl)-2,6-difluoro-phenyl]pentanoic acid], the EC50 was less than 200 nM.

For the compound `O=C(O)CCCCc1c(F)cc(-c2cccnc2SC2CCC2)cc1F` [Example 35, 5-[4-(2-cyclobutylsulfanyl-3-pyridyl)-2,6-difluoro-phenyl]pentanoic acid], the EC50 is less than 200 nM. As for `O=C(O)CCCCc1c(F)cc(-c2cccnc2SC2CCCC2)cc1F` [Example 36, 5-[4-(2-cyclopentylsulfanyl-3-pyridyl)-2,6-difluoro-phenyl]pentanoic acid], the figure is less than 200 nM. As to `O=C(O)CCCCc1c(F)cc(-c2cccnc2OC2CCCC2)cc1F` [Example 37, 5-[4-(2-cyclopentoxy-3-pyridyl)-2,6-difluoro-phenyl]pentanoic acid], the EC50 is less than 200 nM. The value for `O=C(O)COCCc1c(F)cc(-c2cccnc2SC2CCC2)cc1F` [Example 38, {2-[4-(2-cyclobutylsulfanyl-3-pyridyl)-2,6-difluoro-phenyl]ethoxy}acetic acid] was 200 to 2000 nM; that for `CC(CCCC(=O)O)c1ccc(-c2cccnc2SC2CCC2)cc1` (stereo not shown) [Example 39, 5-[4-(2-cyclobutylsulfanyl-3-pyridyl)phenyl]hexanoic acid] was less than 200 nM; that for `CC(CCCC(=O)O)c1ccc(-c2cccc(OC3CCC3)n2)cc1` (stereo not shown) [Example 40, 5-[4-(6-cyclobutoxy-2-pyridyl)-phenyl]hexanoic acid] was less than 200 nM. As for `CC(CCCC(=O)O)c1c(F)cc(-c2cccc(OC3CCC3)n2)cc1F` (stereo not shown) [Example 41, 5-[4-(6-cyclobutoxy-2-pyridyl)-2,6-difluoro-phenyl]hexanoic acid], the figure is less than 200 nM; as for `CCSc1ncccc1-c1cc(F)c(C(C)CCCC(=O)O)c(F)c1` (stereo not shown) [Example 42, 5-[4-(2-ethylsulfanyl-3-pyridyl)-2,6-difluoro-phenyl]hexanoic acid], less than 200 nM; as for `CCCSc1ncccc1-c1cc(F)c(C(C)CCCC(=O)O)c(F)c1` (stereo not shown) [Example 43, 5-[2,6-difluoro-4-(2-propylsulfanyl-3-pyridyl)-phenyl]hexanoic acid], less than 200 nM.

As for `CC(C)Oc1ncccc1-c1cc(F)c(C(C)CCCC(=O)O)c(F)c1` (stereo not shown) [Example 46, 5-[2,6-difluoro-4-(2-isopropoxy-3-pyridyl)phenyl]hexanoic acid], the EC50 is less than 200 nM. As for `CC(CCCC(=O)O)c1c(F)cc(-c2cccnc2SC2CCC2)cc1F` (stereo not shown) [Example 48, 5-[4-(2-cyclobutylsulfanyl-3-pyridyl)-2,6-difluoro-phenyl]hexanoic acid], the figure is less than 200 nM; as for `CC(CCCC(=O)O)c1c(F)cc(-c2cccnc2SC2CCCC2)cc1F` (stereo not shown) [Example 49, 5-[4-(2-cyclopentylsulfanyl-3-pyridyl)-2,6-difluoro-phenyl]hexanoic acid], less than 200 nM.
